Data published in the supplement of paper PMC10307832.

How the values were obtained:
Test in all cases: relative viability (nuclei count vs DMSO), 5 days (fraction); higher = more cells survive
[1] = compound: CC[C@@H](C)CNCC(=O)N1CCC2=C([C@@H]1COC3=CC=CC(=C3)C)C=CS2 [RU-SKI 43] + Cc1cc(Nc2cc(N3CCN(C)CC3)nc(Sc3ccc(NC(=O)C4CC4)cc3)n2)n[nH]1 [Tozasertib] (partner 0.1 µM)
Procedure, shortened: (§1)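 A single step with final 0.05% Triton X-100, 1% formaldehyde and 1 ug/ml Hoechst fixed the cells and stained nuclei 5 days after treatment. Lung cancer cell lines in 1536-well plates had been treated by pin tool the day after seeding with one drug alone or a fixed anchor-drug dose plus five library-drug doses (not always all listed) in √10 steps, and nuclei were counted on 4× images. Relative viability is the ratio of nuclei in treated wells to nuclei in vehicle wells, taken as the median of duplicate plates.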

[2] = compound: CCc1c2c(nc3ccc(OC(=O)N4CCC(N5CCCCC5)CC4)cc13)-c1cc3c(c(=O)n1C2)COC(=O)[C@]3(O)CC [Irinotecan] + CC(=O)Nc1cccc(-n2c(=O)n(C3CC3)c(=O)c3c(Nc4ccc(I)cc4F)n(C)c(=O)c(C)c32)c1 [Trametinib] (partner 0.02 µM)
Procedure, shortened: as §1

[3] = compound: CCc1c2c(nc3ccc(OC(=O)N4CCC(N5CCCCC5)CC4)cc13)-c1cc3c(c(=O)n1C2)COC(=O)[C@]3(O)CC [Irinotecan] + Nc1nc2[nH]cc(CCc3ccc(C(=O)N[C@@H](CCC(=O)O)C(=O)O)cc3)c2c(=O)[nH]1 [Pemetrexed] (partner 0.2 µM)
Procedure, shortened: as §1

[4] = compound: Cn1cc(-c2cnc3ccc4ccc(CS(=O)(=O)NCc5ccccn5)cc4c(=O)c3c2)cn1 [MK-8033] + Cc1nc(Nc2ncc(C(=O)Nc3c(C)cccc3Cl)s2)cc(N2CCN(CCO)CC2)n1 [Dasatinib] (partner 0.075 µM)
Procedure, shortened: as §1

Row | Cell Line | relative viability ([1]; first compound 0.1 µM) | relative viability ([1]; first compound 0.3162 µM) | relative viability ([1]; first compound 1 µM) | relative viability ([1]; first compound 3.162 µM) | relative viability ([1]; first compound 10 µM) | relative viability ([2]; first compound 0.6325 µM) | relative viability ([2]; first compound 2 µM) | relative viability ([2]; first compound 6.325 µM) | relative viability ([2]; first compound 20 µM) | relative viability ([3]; first compound 0.6325 µM) | relative viability ([3]; first compound 2 µM) | relative viability ([3]; first compound 6.325 µM) | relative viability ([3]; first compound 20 µM) | relative viability ([4]; first compound 0.02 µM) | relative viability ([4]; first compound 0.06325 µM) | relative viability ([4]; first compound 0.2 µM) | relative viability ([4]; first compound 0.6325 µM) | relative viability ([4]; first compound 2 µM)
1 | HOP-62 | 0.359 | 0.371 | 0.479 | 0.344 | 0.287 | 0.311 | 0.23 | 0.23 | 0.228 | 0.0967 | 0.337 | 0.17 | 0.166 | 0.536 | 0.535 | 0.581 | 0.66 | 0.599
2 | LC-2-ad | 0.424 | 0.442 | 0.459 | 0.424 | 0.405 | 0.657 | 0.365 | 0.275 | 0.253 | 0.325 | 0.271 | 0.259 | 0.151 | 0.547 | 0.437 |  | 0.67 | 0.61
3 | LCLC-97TM1 | 0.26 | 0.22 | 0.207 | 0.21 | 0.231 | 0.131 | 0.14 | 0.128 | 0.154 | 0.124 | 0.196 | 0.129 | 0.133 | 0.887 | 0.814 | 0.803 | 0.84 | 0.939
4 | LCLC-103H | 0.411 | 0.445 | 0.498 | 0.501 | 0.373 | 0.655 | 0.603 | 0.463 | 0.479 | 0.477 | 0.471 | 0.508 | 0.516 | 0.516 | 0.518 | 0.406 | 0.434 | 0.537
5 | LK-2 | 0.186 | 0.156 | 0.165 | 0.181 | 0.171 | 0.821 | 0.7 | 0.465 | 0.281 | 0.227 | 0.343 | 0.182 | 0.336 | 0.269 |  | 0.251 | 0.376 | 0.304
6 | LOU-NH91 | 0.659 | 0.646 | 0.672 | 0.702 | 0.6 | 0.774 | 0.768 | 0.466 | 0.29 | 0.392 | 0.402 | 0.338 | 0.182 | 0.534 | 0.388 | 0.537 | 0.57 | 0.544
7 | LU99A | 0.255 | 0.234 | 0.279 | 0.202 | 0.227 | 0.184 | 0.182 | 0.164 | 0.156 | 0.162 | 0.126 | 0.155 | 0.109 | 0.61 | 0.442 | 0.626 | 0.542 | 0.445
8 | LXF-289 | 0.229 | 0.249 | 0.21 | 0.2 | 0.183 | 0.653 | 0.328 | 0.268 | 0.197 | 0.733 | 0.854 | 0.54 | 0.212 | 0.197 | 0.213 | 0.208 | 0.189 | 0.215
9 | NCI-H23 | 0.394 | 0.393 | 0.347 | 0.455 | 0.297 | 0.35 | 0.289 | 0.187 | 0.191 | 0.484 | 0.597 | 0.268 | 0.256 | 0.844 | 0.827 | 0.64 | 0.928 | 0.587
10 | NCI-H322M | 0.516 | 0.502 | 0.47 | 0.518 | 0.394 | 0.508 | 0.616 | 0.481 | 0.304 | 0.568 | 0.659 | 0.518 | 0.266 | 0.283 | 0.243 | 0.238 | 0.263 | 0.261
11 | NCI-H358 | 0.109 | 0.106 | 0.0941 | 0.103 | 0.0859 | 0.106 | 0.131 | 0.125 | 0.071 | 0.167 | 0.19 | 0.146 | 0.167 | 0.15 | 0.149 | 0.198 | 0.163 | 0.175
12 | NCI-H441 | 0.597 | 0.542 | 0.541 | 0.736 | 0.554 | 0.405 | 0.426 | 0.141 | 0.198 | 0.261 | 0.178 | 0.222 | 0.241 | 0.511 | 0.603 | 0.494 | 0.835 | 0.405
13 | NCI-H460 | 0.545 | 0.4 | 0.544 | 0.504 | 0.274 | 0.086 | 0.159 | 0.089 | 0.0313 | 0.0679 | 0.093 | 0.0699 | 0.0601 | 0.481 | 0.409 | 0.48 | 0.501 | 0.484
14 | NCI-H520 | 0.456 | 0.422 | 0.428 | 0.401 | 0.408 | 0.52 | 0.397 | 0.264 | 0.172 | 0.509 | 0.277 | 0.273 | 0.167 | 0.193 | 0.187 | 0.211 | 0.221 | 0.168
15 | NCI-H727 | 0.658 | 0.583 | 0.54 | 0.564 | 0.629 | 0.373 | 0.336 | 0.382 | 0.346 |  |  |  |  | 0.363 |  | 0.464 | 0.435 | 0.322
16 | NCI-H1563 |  |  |  |  |  |  |  |  |  | 0.649 | 0.777 | 0.756 | 0.671 | 0.468 | 0.45 | 0.473 | 0.362 | 0.46
17 | NCI-H1623 | 0.447 | 0.42 | 0.71 | 0.386 | 0.399 |  |  |  |  |  |  |  |  | 0.608 | 0.504 | 0.642 | 0.516 | 0.57
18 | NCI-H1648 |  |  | 0.428 | 0.484 | 0.4 | 0.441 | 0.383 | 0.299 | 0.323 | 0.703 | 0.68 | 0.453 | 0.423 |  |  |  |  | 
19 | NCI-H1792 |  |  |  |  |  | 0.356 | 0.532 | 0.225 | 0.205 | 0.507 | 0.823 | 0.188 | 0.282 | 0.768 | 0.834 | 0.752 | 0.57 | 0.569
